The text below walks through data of article PMC6435570, “Zafirlukast Is a Dual Modulator of Human Soluble Epoxide Hydrolase and Peroxisome Proliferator-Activated Receptor γ” (Frontiers in Pharmacology, 2019).

The target of experiment [1] is T1, human PPARα ligand binding domain (Homo sapiens, UniProt Q07869).
T1 construct: expressed in transfected cells; host or cells: HEK-293T
T1 sequence (Q07869 239-466 limits assumed): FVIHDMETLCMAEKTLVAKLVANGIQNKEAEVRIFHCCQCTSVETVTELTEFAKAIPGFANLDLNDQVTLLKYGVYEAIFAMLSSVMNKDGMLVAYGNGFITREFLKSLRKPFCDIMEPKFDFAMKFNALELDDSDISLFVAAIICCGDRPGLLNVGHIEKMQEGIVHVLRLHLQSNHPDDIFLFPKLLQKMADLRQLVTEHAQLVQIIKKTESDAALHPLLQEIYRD
Nature of the experiment: PPAR reporter gene assay (Gal4 hybrid, PPARα). Type of experiment: cell-based. Conditions: HEK-293T, reference GW7647 1 μM, tested up to 10 μM. On the technique in general: A reporter such as luciferase makes a cellular process visible.
Protocol: HEK-293T cells were seeded in 96-well plates (2.5 × 10^4 cells/well) and were allowed to adhere overnight. Before transfection, medium was changed to Opti-MEM without supplements. Transient plasmid transfection was carried out using Lipofectamine LTX reagent (Invitrogen, Carlsbad, CA, United States) according to the manufacturer’s protocol with pFR-Luc (Stratagene, La Jolla, CA, United States), pRL-SV40 (Promega, Fitchburg, MA, United States) and pFA-CMV-PPAR-LBD ([Rau et al., 2006]). 5 h after transfection, medium was changed to Opti-MEM supplemented with penicillin (100 U/mL) and streptomycin (100 μg/mL), now additionally containing 0.1% DMSO and the respective test compound or 0.1% DMSO alone as untreated control. Each concentration was tested in triplicates and each experiment was repeated independently at least four times. Following overnight (12–16 h) incubation with the test compounds, cells were assayed for luciferase activity using the Dual-Glo^TM Luciferase Assay System (Promega, Fitchburg, MA, United States) according to the manufacturer’s protocol. Luminescence was measured with an Infinite M200 luminometer (Tecan Group Ltd., Männedorf, Switzerland). Normalization of transfection efficiency and cell growth was done by division of firefly luciferase data by renilla luciferase data and multiplying the value by 1000 resulting in relative light units (RLU). Fold activation was obtained by dividing the mean RLU of a test compound at a respective concentration by the mean RLU of untreated control. Relative activation was obtained by dividing the fold activation of a test compound at a respective concentration by the fold activation of the respective PPARα, γ or δ full agonist GW-7647, pioglitazone or L165,041 at 1 μM. EC50 and standard deviation were calculated with the mean relative activation values of at least four independent experiments by SigmaPlot 10.0 (Systat Software GmbH, Erkrath, Germany) using a four parameter logistic regression. […]

Experiment [2] has as its system PPARγ target genes (LPL, GLUT-4, FABP-4, adiponectin) in 3T3-L1 adipocytes. The experiment in a line: PPARγ target gene mRNA expression in differentiated 3T3-L1 adipocytes (qRT-PCR). Type of experiment: cell-based, murine. Conditions: after 14 days; for mRNA expression of PPARγ target genes (LPL, GLUT-4, FABP-4, adiponectin): normalized to cells with activation cocktail only. As for the experimental part:
(§1) 3T3-L1 cells were differentiated into adipocytes for 14 days according to the protocol of [Zebisch et al. (2012)]. For this, cells were seeded in 6-well plates ([…]) and differentiation was induced after 48 h by addition of a differentiation cocktail containing 1 μg/mL insulin, 0.25 μM dexamethasone and 0.5 mM isobutylmethylxanthine (IBMX) in DMEM supplemented with 10% FCS and 1% PS. […] After 2 days, medium was replaced by DMEM supplemented with 10% FCS, 1% PS and 1 μg/mL insulin for 2 more days. Afterwards, cells were kept for lipid droplet accumulation in DMEM containing 10% FCS and 1% PS until day 15. Media were replaced every other day.
3T3-L1 cells were lysed using TRIzol® reagent (Ambion Life Technologies, Carlsbad, CA, United States). Subsequently, mRNA was isolated following the manufacturers protocol. DNA contaminations were digested using DNAse (DNase I, RNase-free Kit; Thermo Scientific, Waltham, MA, United States) and mRNA concentrations were determined using a NanoDrop^TM2000 spectrophotometer (Thermo Scientific, Waltham, MA, United States). Afterwards, reverse transcription was performed using the High Capacity RNA-to-cDNA Kit (Applied Biosystems, Foster City, CA, United States) following the manufacturers protocol. […] Relative mRNA expression was determined by the 2^-ΔΔCt method normalized to murine non-POU domain-containing octamer binding protein (Nono). All samples were measured in triplicates and experiments were repeated independently at least three times.
To gain further insight in PPARγ activation after compound treatment, mature 3T3-L1 adipocytes were harvested after 14 days and mRNA was isolated, reverse transcribed and subjected to quantitative RT-PCR. mRNA expression of the PPARγ target genes lipoprotein lipase (LPL), the glucose transporter 4 (GLUT-4), the fatty acid binding protein 4 (FABP-4) and adiponectin was monitored by quantitative PCR (Figure 3A–D and Supplementary Figure S1). […]

The subject of experiment [3] is PPARγ, FABP-4 and CD36 protein in 3T3-L1 adipocytes. Nature of the experiment: Protein expression in differentiated 3T3-L1 adipocytes (Western Blot). Type of experiment: cell-based, murine. Conditions: rosiglitazone 2 μM; for PPARγ isoforms γ1 and γ2 protein expression: 3T3-L1 differentiated with cocktail plus compound; for Protein expression of PPARγ target genes FABP-4 and CD36: after 14 days. As for the experimental part:
as §1
Total 3T3-L1 or HEP-G2 cell lysates were prepared in lysis buffer (20 mM Tris-HCl, pH 7.4, 150 mM NaCl, 2 mM EDTA, 1% Triton X-100, 0.5% NP-40) supplemented with protease and phosphatase inhibitors (PhosSTOP^TM + cOmplete^TM Mini, Roche Diagnostics GmbH, Mannheim, Germany). Protein concentrations were quantified using the Pierce^TM BCA Protein Assay Kit (Thermo Scientific, Waltham, MA, United States). Total protein (30 μg/lane) was separated by SDS-polyacrylamide gel electrophoresis and transferred to nitrocellulose membranes (GE Healthcare Life Sciences, Little Chalfont, United Kingdom). Membranes were blocked with Odyssey blocking reagent (LI-COR Biosciences, Bad Homburg, Germany) for 1 h at room temperature. Ensuing, membranes were incubated with antibodies against CD36 (EPR6573, Abcam, Cambridge, United Kingdom), PPARγ (E-8, Santa Cruz Biotechnology, Heidelberg, Germany), FABP-4 (C-15, Santa Cruz Biotechnology, Heidelberg, Germany) or PPARγ Ser273 (Bioss Antibodies Inc., Woburn, MA, United States) overnight at 4°C. Afterwards, membranes were washed and incubated with fluorescence conjugated secondary antibodies (IRDye, LI-COR Biosciences, Bad Homburg, Germany). Protein antibody complexes were visualized on the Odyssey Infrared Imaging System (LI-COR Biosciences, Bad Homburg, Germany). β-actin (I-19, goat, polyclonal, Santa Cruz Biotechnology, Heidelberg, Germany) was used as loading control. The density of the immune reactive bands was analyzed using the Image Studio 5.2 software (LI-COR Biosciences, Bad Homburg, Germany).
As master regulator of adipocyte differentiation in men and mice, PPARγ plays a crucial role in the cell’s commitment to the adipocyte lineage by controlling important functions such as intracellular biosynthesis, transport and accumulation of lipids. Murine 3T3-L1 fibroblasts are a well characterized in vitro tool to study PPARγ induced adipocyte differentiation. These cells can be differentiated from fibroblasts into adipocytes by an activation cocktail (0.5 mM IBMX, 1 μg/mL insulin, 0.25 μM dexamethasone) together with the potential PPARγ agonist. Upon differentiation, different parameters such as lipid accumulation and PPARγ target gene expression can be assessed to investigate the PPARγ activating potential of the compounds of interest. […] Rosiglitazone (2 μM) was used as positive control. This was followed by insulin (1 μg/mL) treatment for another 48 h. After this, cells were kept in growth medium for a week to complete the differentiation process and allow intracellular lipid accumulation. Subsequently, the cells were stained with Oil Red O solution to investigate the extent of cytoplasmic lipid droplet accumulation as a measure for cell differentiation.
In addition to mRNA expression, the protein expression levels of the two PPARγ target genes FABP-4 and CD36 in differentiated 3T3-L1 cells after 14 days were investigated. For this, total protein lysates were separated by gel electrophoresis followed by Western Blotting (Figure 3E,F and Supplementary Figures S2A,B).
Background: Immunoblotting shows a protein as a band on a membrane.

For the compound `CC(C)(O)c1ccccc1CC[C@@H](SCC1(CC(=O)O)CC1)c1cccc(/C=C/c2ccc3ccc(Cl)cc3n2)c1` [Montelukast, montelukast], the “PPARα EC50” value in experiment [1] was “i.a. @ 10 μM”. In addition, in experiment [2], the “mRNA expression of PPARγ target genes (LPL, GLUT-4, FABP-4, adiponectin)” value is “did not influence the expression”. For the same compound, in experiment [3], the “PPARγ isoforms γ1 and γ2 protein expression” value is recorded as “not affected”; the “Protein expression of PPARγ target genes FABP-4 and CD36” value is on record as “no effect at all”.

In the case of `COc1cc(C(=O)NS(=O)(=O)c2ccccc2C)ccc1Cc1cn(C)c2ccc(NC(=O)OC3CCCC3)cc12` [Zafirlukast, zafirlukast], the “PPARα EC50” value in experiment [1] is “i.a. @ 10 μM”. In experiment [2] (compared to the other target genes), the “Adiponectin mRNA level” value is recorded as “elevated adiponectin levels more effectively compared to the other target genes”. Also, the “mRNA expression of PPARγ target genes (LPL, GLUT-4, FABP-4, adiponectin)” value in experiment [2] is “dose-dependently induced target gene expression although to a lesser extent compared to rosiglitazone”. In addition, in experiment [3], the “PPARγ isoforms γ1 and γ2 protein expression” value is reported as “upregulated the protein levels”; the “Protein expression of PPARγ target genes FABP-4 and CD36” value was “induced target gene expression as well but to a weaker extent”.
